The text below walks through data of ChEMBL document CHEMBL1135353, “Synthesis and initial SAR studies of 3,6-disubstituted pyrazolo[1,5-a]pyrimidines: a new class of KDR kinase inhibitors” (Bioorg Med Chem Lett, 2002).

Series [1] addresses Vascular endothelial growth factor receptor 2 (Homo sapiens, UniProt P35968). The series is described as follows: Inhibitory activity at VEGF-2 receptor.
A short description of series [2]: Partition coefficient (logP). The note with it: octanol/water. The class given is physicochemical.
In series [3] the target is Vascular endothelial growth factor receptor 2 and 3 (KDR and Flt-4) (Homo sapiens) (UniProt P35916+P35968). The series is described as follows: Selectivity for VEGF-receptor 2 (KDR) over Vascular endothelial growth factor receptor 3 (FLT4). The class given is protein assay.
Sequence of Vascular endothelial growth factor receptor 2 and 3 (KDR and Flt-4) (Homo sapiens) (P35916 whole entry, looked up): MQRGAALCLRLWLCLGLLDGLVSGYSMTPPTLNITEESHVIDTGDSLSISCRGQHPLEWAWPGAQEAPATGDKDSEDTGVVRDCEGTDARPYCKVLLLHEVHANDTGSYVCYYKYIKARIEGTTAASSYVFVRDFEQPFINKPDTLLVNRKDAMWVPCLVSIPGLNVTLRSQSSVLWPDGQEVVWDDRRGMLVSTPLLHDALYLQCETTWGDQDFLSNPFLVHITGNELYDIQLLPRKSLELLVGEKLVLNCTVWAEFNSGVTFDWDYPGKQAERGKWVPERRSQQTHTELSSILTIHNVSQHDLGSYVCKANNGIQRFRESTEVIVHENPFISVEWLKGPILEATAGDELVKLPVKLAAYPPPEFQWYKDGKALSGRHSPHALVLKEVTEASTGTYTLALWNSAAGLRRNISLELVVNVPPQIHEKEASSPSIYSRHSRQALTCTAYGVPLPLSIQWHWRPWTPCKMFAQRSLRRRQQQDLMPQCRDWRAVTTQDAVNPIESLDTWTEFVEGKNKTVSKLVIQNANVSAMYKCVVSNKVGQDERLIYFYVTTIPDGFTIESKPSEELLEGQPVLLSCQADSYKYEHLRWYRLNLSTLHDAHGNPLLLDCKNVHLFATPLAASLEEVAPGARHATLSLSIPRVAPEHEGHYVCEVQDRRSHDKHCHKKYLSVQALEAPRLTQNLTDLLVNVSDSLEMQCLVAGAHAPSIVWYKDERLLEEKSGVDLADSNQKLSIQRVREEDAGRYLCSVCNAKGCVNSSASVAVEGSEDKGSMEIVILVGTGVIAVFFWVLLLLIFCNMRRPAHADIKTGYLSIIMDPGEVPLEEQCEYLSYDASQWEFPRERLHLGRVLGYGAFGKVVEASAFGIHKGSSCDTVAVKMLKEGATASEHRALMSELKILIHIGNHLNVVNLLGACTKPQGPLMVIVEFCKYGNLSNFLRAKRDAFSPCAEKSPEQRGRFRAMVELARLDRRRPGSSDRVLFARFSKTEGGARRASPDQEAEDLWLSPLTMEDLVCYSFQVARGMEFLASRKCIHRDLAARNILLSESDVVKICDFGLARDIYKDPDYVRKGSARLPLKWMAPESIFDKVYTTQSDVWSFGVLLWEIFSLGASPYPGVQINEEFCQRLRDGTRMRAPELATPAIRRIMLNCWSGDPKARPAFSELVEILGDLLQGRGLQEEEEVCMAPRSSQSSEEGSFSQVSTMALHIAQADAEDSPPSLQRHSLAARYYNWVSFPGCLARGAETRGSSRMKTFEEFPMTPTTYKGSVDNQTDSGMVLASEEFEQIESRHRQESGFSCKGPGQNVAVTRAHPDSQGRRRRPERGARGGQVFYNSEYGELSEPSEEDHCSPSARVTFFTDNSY
Sequence of Vascular endothelial growth factor receptor 2 and 3 (KDR and Flt-4) (Homo sapiens) (P35968 whole entry, looked up): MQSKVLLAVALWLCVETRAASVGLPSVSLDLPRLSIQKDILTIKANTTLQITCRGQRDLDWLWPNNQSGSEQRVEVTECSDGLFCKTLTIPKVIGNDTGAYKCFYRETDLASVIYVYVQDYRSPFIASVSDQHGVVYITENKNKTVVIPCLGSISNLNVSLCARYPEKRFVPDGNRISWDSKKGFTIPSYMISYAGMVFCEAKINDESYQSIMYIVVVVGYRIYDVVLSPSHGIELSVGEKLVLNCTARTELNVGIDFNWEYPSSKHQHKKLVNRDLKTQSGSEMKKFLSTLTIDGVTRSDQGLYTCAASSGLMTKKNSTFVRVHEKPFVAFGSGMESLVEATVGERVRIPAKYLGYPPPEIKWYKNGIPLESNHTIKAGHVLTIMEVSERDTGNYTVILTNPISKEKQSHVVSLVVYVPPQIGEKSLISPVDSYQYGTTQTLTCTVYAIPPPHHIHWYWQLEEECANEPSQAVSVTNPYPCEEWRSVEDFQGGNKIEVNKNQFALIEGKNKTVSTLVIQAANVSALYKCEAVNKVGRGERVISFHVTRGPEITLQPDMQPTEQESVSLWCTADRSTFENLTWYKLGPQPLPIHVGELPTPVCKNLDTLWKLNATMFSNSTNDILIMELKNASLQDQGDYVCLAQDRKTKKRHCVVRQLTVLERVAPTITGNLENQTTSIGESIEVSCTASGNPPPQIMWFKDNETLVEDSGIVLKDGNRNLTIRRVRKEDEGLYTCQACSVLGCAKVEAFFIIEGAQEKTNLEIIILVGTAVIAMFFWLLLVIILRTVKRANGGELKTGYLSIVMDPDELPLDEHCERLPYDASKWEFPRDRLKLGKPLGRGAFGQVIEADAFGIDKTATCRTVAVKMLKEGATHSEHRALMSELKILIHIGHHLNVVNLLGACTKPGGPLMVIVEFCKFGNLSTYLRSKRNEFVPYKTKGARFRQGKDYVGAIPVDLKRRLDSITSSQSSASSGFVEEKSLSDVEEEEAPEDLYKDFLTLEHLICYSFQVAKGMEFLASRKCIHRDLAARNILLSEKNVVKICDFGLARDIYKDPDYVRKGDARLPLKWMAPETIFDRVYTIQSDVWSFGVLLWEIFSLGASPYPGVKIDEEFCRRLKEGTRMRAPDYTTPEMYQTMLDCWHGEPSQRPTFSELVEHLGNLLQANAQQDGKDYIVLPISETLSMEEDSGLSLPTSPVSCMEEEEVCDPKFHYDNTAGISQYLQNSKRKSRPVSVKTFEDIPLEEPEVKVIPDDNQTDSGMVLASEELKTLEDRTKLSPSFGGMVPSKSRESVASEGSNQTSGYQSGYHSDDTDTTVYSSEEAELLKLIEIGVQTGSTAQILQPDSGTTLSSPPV
For series [4], the target named is VEGF-receptor 2 and tyrosine-protein kinase SRC (Homo sapiens) (UniProt P12931+P35968). Put plainly: Selectivity for Vascular endothelial growth factor receptor 2 over c-Src kinase. It counts as protein assay.
Sequence of VEGF-receptor 2 and tyrosine-protein kinase SRC (Homo sapiens) (P12931 whole entry, looked up): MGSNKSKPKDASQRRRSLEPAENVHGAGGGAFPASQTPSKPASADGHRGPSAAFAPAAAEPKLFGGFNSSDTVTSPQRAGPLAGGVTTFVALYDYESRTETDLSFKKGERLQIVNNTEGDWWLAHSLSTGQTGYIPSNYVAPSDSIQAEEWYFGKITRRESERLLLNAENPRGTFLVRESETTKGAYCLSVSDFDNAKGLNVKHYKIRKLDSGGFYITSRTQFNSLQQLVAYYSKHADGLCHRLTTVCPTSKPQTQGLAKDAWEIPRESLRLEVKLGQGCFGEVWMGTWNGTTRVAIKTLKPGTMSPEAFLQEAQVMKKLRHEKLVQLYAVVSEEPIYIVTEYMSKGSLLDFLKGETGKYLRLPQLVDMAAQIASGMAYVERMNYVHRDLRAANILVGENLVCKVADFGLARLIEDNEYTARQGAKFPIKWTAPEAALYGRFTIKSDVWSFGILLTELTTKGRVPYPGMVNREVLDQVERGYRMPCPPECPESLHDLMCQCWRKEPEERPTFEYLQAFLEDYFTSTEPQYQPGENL
Sequence of VEGF-receptor 2 and tyrosine-protein kinase SRC (Homo sapiens) (P35968 whole entry, looked up): as the sequence (P35968 whole entry, looked up) above
The target in series [5] is VEGF-receptor 2 and PDGF-receptor beta (KDR and PDGFR beta) (Homo sapiens) (UniProt P09619+P35968). Put plainly: Selectivity for Vascular endothelial growth factor receptor 2 over Platelet-derived growth factor receptor beta. The class given is protein assay.
Sequence of VEGF-receptor 2 and PDGF-receptor beta (KDR and PDGFR beta) (Homo sapiens) (P09619 whole entry, looked up): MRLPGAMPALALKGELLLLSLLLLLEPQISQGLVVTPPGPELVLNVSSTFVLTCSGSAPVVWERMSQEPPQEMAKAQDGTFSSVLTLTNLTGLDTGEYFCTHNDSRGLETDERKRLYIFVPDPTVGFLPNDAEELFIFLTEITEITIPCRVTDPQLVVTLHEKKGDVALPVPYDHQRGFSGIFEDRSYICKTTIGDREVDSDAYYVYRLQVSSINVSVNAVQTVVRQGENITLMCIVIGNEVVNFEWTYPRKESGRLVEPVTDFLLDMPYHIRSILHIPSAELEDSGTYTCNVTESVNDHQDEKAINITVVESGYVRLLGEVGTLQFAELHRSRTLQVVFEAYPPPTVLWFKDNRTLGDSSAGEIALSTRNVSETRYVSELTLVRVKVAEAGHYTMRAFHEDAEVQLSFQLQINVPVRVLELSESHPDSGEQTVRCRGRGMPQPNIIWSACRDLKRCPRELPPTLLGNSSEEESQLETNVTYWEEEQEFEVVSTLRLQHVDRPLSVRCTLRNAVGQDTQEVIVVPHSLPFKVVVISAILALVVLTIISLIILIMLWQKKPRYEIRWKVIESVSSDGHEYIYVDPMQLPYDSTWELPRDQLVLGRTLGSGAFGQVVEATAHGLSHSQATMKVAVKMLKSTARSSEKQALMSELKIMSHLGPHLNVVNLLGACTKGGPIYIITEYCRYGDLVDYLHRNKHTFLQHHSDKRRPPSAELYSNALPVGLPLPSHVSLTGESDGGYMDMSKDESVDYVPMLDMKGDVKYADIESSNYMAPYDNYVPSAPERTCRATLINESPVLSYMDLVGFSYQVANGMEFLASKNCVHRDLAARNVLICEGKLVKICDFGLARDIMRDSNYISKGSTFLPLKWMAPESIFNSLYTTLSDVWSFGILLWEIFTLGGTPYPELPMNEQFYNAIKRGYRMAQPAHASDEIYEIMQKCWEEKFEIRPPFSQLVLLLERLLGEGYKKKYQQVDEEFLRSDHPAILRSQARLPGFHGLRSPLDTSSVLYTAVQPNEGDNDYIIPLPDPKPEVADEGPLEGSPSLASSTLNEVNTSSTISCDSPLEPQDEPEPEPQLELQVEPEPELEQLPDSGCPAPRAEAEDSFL
Sequence of VEGF-receptor 2 and PDGF-receptor beta (KDR and PDGFR beta) (Homo sapiens) (P35968 whole entry, looked up): as the sequence (P35968 whole entry, looked up) above
Series [6] concerns the target Vascular endothelial growth factor receptor (Homo sapiens, UniProt P17948+P35916+P35968). The note with it: endothelial cell.
Description: Inhibition of VEGF-stimulated mitogenesis in human umbilical vein endothelial cells

Sequence of Vascular endothelial growth factor receptor 2 (P35968 whole entry): as the sequence (P35968 whole entry, looked up) above

Consider `Cc1ccc(-c2cnc3c(-c4ccncc4)cnn3c2)cc1`, for which the IC50 in series [1] amounted to 0.062 µM. This counts as double-digit nanomolar. Same read-out and setting: in the case of `Clc1ccc(-c2cnc3c(-c4ccncc4)cnn3c2)cc1` it was 0.113 µM. `c1cc(-c2cnc3c(-c4ccncc4)cnn3c2)ccn1`: the logP in series [2] amounted to 2.5. In series [1], `Clc1cccc(-c2cnn3cc(-c4ccncc4)cnc23)c1` gave an IC50 of 0.35 µM. In other words, the sub-micromolar range. `C1=C(c2cnn3cc(-c4ccncc4)cnc23)CCC1` had an IC50 in series [1] of 0.028 µM. Against the preceding compound, the IC50 is about 12-fold lower. On the same count and under the same terms, in the case of `COc1cccc(-c2cnn3cc(-c4ccncc4)cnc23)c1` it was 0.51 µM; in that of `c1ccc(-c2cnn3cc(-c4ccccn4)cnc23)cc1`, 0.088 µM. For the compound `COc1ccc(-c2cnc3c(-c4ccsc4)cnn3c2)cc1`, the logP in series [2] was above 4. On to `c1ccc(-c2cnn3cc(-c4ccncc4)cnc23)cc1`, for which the IC50 in series [1] is 0.071 µM. On to `C1=C(c2cnn3cc(-c4ccncc4)cnc23)CCCC1`, for which, in series [1], the IC50 was 0.041 µM. In the case of `COc1ccc(-c2cnc3c(-c4ccncc4)cnn3c2)cc1`, the results for the Ratio in series [3], in series [4] and in series [5] were 2.2, 27 and 0.5, respectively. The same compound gave a logP in series [2] of 4. Turning to `c1cc(-c2cnn3cc(C4CCCCC4)cnc23)cs1`, the IC50 in series [1] worked out at 0.28 µM. On the same count and under the same terms, in the case of `Fc1ccc(-c2cnn3cc(-c4ccncc4)cnc23)cc1` it was 0.063 µM; in that of `COc1ccc(-c2cnc3c(-c4cccnc4)cnn3c2)cc1`, 0.041 µM. Compound `c1cc(-c2cnc3c(-c4ccsc4)cnn3c2)ccn1` came in with an IC50 in series [6] of 0.127 µM. This lies in the sub-micromolar range. In the case of `Fc1ccc(-c2cnn3cc(-c4ccncc4)cnc23)cc1Cl`, 0.265 µM corresponded to half-maximal inhibition in series [1] (IC50). Still for that read-out and setting: as for `COc1ccc(-c2cnc3c(-c4ccccn4)cnn3c2)cc1`, the figure is 1 µM.
